Results as given in publication PMC6921279 (Frontiers in Endocrinology, 2019).
Ends that are not written are not given here.

What was measured:
[1] = system: CRF1R-mediated ERK1/2 phosphorylation; assay: Modulation of CRF-stimulated ERK1/2 phosphorylation in COS-7 cells expressing HA-CRF1R; format: cell-based; conditions: 30 min pretreatment, 100 nM CRF, 5 min
Method: Plasmid pRK5 encoding the carboxyl terminus of βARK that contains its βγ-binding domain (ct-βARK) was kindly provided by Dr. W. Koch (Center for Translational Medicine, Temple University, Philadelphia, PA), which is a scavenger for G protein βγ subunits ([25]). […] Plasmid pUSEamp encoding dominant-negative Akt-K179M (dn-Akt) was from Upstate Biotechnology (Lake Placid, NY).
COS-7 cells (from the American Type Culture Collection) were cultured at 37°C in a humidified atmosphere of 95% air, 5% CO2, in DMEM supplemented with 10% FBS, 100 μg/ml streptomycin, and 100 units/ml penicillin (COS-7 growth medium). Transient transfections were performed using LipofectAMINE (Life Technologies: Gaithersburg, MD) as described previously ([27]). Cells were seeded at 8 × 10^5 cells/10-cm dish in COS-7 medium and cultured for 3 days before transfection. COS-7 cells were transfected in 5 ml/dish OptiMEM containing 10 μg/ml LipofectAMINE with empty vector, pcDNA3 encoding the HA-CRF1R or the HA-CRF1R-Δ386 mutant. […] After replacing the transfection medium with fresh growth medium, transfected COS-7 cells were cultured for 1 day. Subsequently, cells were re-seeded in 6-well plates and cultured for an additional day prior to the experiment.
(§1) The protocols for measuring total and phosphorylated ERK1/2, c-Src, PYK2, Akt, and EGFR have been previously published ([28], [29]). After cells were cultured to 60–70% confluence, they were serum-deprived for 24 h. On the day of the experiment, cells were treated with the indicated ligands and inhibitors. […] After treatment, cells were placed on ice, the media was aspirated, and the cells were washed twice with ice-cold PBS and lysed in 100 μl of Laemmli sample buffer 1X. The lysates were briefly sonicated, heated at 95°C for 5 min, and centrifuged for 5 min at 14,000 rpm. Resulting supernatants were loaded in separate lanes of a 10% SDS-PAGE gels and electrophoresed. Next, Western transfer on to PDVF membranes was completed. The Western blots were then probed with specific antibodies targeting phosphorylated and non-phosphorylated forms of ERK1/2, c-Src, PYK2, Akt, and EGFR for primary immunodetection. After blots were probed with horseradish peroxidase-conjugated secondary antibody, protein bands were visualized with enhanced chemiluminescence ECL reagent (Amersham Pharmacia Biotech, Piscataway, NJ or Pierce Biotechnology, Rockford, IL) and scanned using the GS-800 Calibrated Imaging Densitometer (Bio-Rad). The labeled bands were quantified using the Quantity One 4.6.3 software program (Bio-Rad).
(§2) Total cell lysates were separated by SDS-PAGE and analyzed by immunoblotting with anti-p-ERK1/2 Thr^202/Tyr^204, as described in Materials and Methods. ERK1/2 phosphorylation was quantitated by densitometry, and mean values were plotted from five independent experiments.
Total cell lysates were separated by SDS-PAGE and analyzed by immunoblotting with anti-p-ERK1/2 Thr^202/Tyr^204 (A–D) or anti-p-EGFR Tyr^1068 (E), as described in Materials and Methods. ERK1/2 and EGFR phosphorylation were quantitated by densitometry, and mean values were plotted from three to five independent experiments.
Total cell lysates were separated by SDS-PAGE and analyzed by immunoblotting with anti-p-ERK1/2 Thr^202/Tyr^204, as described in Materials and Methods. ERK1/2 phosphorylation was quantitated by densitometry, and mean values were plotted from three to five independent experiments.

[2] = system: PMA-stimulated ERK1/2 phosphorylation; assay: Modulation of PMA-stimulated ERK1/2 phosphorylation in COS-7 cells; format: cell-based; conditions: BIM 1 μM, 30 min pretreatment; 100 nM PMA, 15 min
Method: COS-7 cells (from the American Type Culture Collection) were cultured at 37°C in a humidified atmosphere of 95% air, 5% CO2, in DMEM supplemented with 10% FBS, 100 μg/ml streptomycin, and 100 units/ml penicillin (COS-7 growth medium). Transient transfections were performed using LipofectAMINE (Life Technologies: Gaithersburg, MD) as described previously ([27]). Cells were seeded at 8 × 10^5 cells/10-cm dish in COS-7 medium and cultured for 3 days before transfection. COS-7 cells were transfected in 5 ml/dish OptiMEM containing 10 μg/ml LipofectAMINE with empty vector, pcDNA3 encoding the HA-CRF1R or the HA-CRF1R-Δ386 mutant. […]
The protocols for measuring total and phosphorylated ERK1/2, c-Src, PYK2, Akt, and EGFR have been previously published ([28], [29]). […] The labeled bands were quantified using the Quantity One 4.6.3 software program (Bio-Rad).
as §2, with “Figure 2 CRF-induced ERK1/2 phosphorylation is dependent on Gi protein. […] Total” for “Total”, “experiments. […]” for “experiments.”
Total cell lysates were separated by SDS-PAGE and analyzed by immunoblotting with anti-p-ERK1/2 Thr202/Tyr204, as described in materials and methods. […]

[3] = system: basal ERK1/2 or Akt phosphorylation; assay: Basal ERK1/2 and Akt phosphorylation in COS-7 cells expressing CRF1R; format: cell-based; conditions: 1 µM BIM, 30 min
Method: as §1, with “After blots were probed with horseradish peroxidase-conjugated secondary antibody, protein bands were visualized with enhanced chemiluminescence ECL reagent (Amersham Pharmacia Biotech, Piscataway, NJ or Pierce Biotechnology, Rockford, IL) and scanned using the GS-800 Calibrated Imaging Densitometer (Bio-Rad).” left out, “(Bio-Rad). […]” for “(Bio-Rad).”
Total cell lysates were separated by SDS-PAGE and analyzed by immunoblotting with anti-p-Akt Ser473 or anti-p-ERK1/2 Thr202/Tyr204, as described in materials and methods. […]

[4] = system: CATH.a, rat fetal microglial, locus coeruleus, and transfected CHO cells; conditions: H89; cited from earlier work
Text: (§3) Defining the molecular mechanisms for ERK1/2 signaling by a GPCR has become a significant focus of signal transduction research due to the multifaceted pathways mediating signaling via the ERK1/2-MAP kinase cascade. A significant role of the ERK1/2-MAP kinase pathway has been recognized in the biological action of both CRF1R and CRF2R. ERK1/2 is widely distributed in the brain and is considered an essential regulator of the molecular processes involved in response to stress ([6], [64]). It is well-established that most GPCRs signal via ERK1/2-MAP kinase cascades through distinct Gi-, Gs-, and ...

fetal hippocampal cells = conditions: H89 pretreatment; cited from earlier work
Text: as §3

EGFR = conditions: Ucn1, CRF1R-expressing HEK293; cited from earlier work
[5] = system: CRF1R-expressing SK-N-MC neuroblastoma cells; assay: ERK1/2 phosphorylation in CRF1R-expressing SK-N-MC neuroblastoma cells; format: cell-based; conditions: 100 ng/ml FGF, 2 or 5 min
Method: as §1, with “After blots were probed with horseradish peroxidase-conjugated secondary antibody, protein bands were visualized with enhanced chemiluminescence ECL reagent (Amersham Pharmacia Biotech, Piscataway, NJ or Pierce Biotechnology, Rockford, IL) and scanned using the GS-800 Calibrated Imaging Densitometer (Bio-Rad).” left out
Supplementary Figure S2. […] Total cell lysates were separated by SDS-PAGE and analyzed by immunoblotting with anti-p-ERK1/2 Thr202/Tyr204, as described in materials and methods. […]

CN(C)CCCn1cc(C2=C(c3c[nH]c4ccccc34)C(=O)NC2=O)c2ccccc21 [BIM, bisindolylmaleimide I]
CRF-stimulated ERK1/2 activation, fold increase ([1]; BIM 1 μM): ~ 1.6 -fold increase over CRF stimulation
effect on PMA-induced ERK1/2 phosphorylation [2]: inhibited ERK1/2 phosphorylation resulting from PMA-induced PKC activation
effect on basal ERK1/2 activation [3]: small increase in ERK1/2 activation

O=S(=O)(NCCNC/C=C/c1ccc(Br)cc1)c1cccc2cnccc12 [H89]
effect on CRF-stimulated ERK1/2 phosphorylation ([1]; H89 500 nM): failed to inhibit CRF-stimulated ERK1/2 phosphorylation
effect on CRF1R-mediated ERK signaling [4]: failed to inhibit CRF1R-mediated ERK signaling
effect on CRF1R-mediated ERK phosphorylation (fetal hippocampal cells): only produced a small reduction in CRF1R-mediated ERK phosphorylation

Ucn1: urocortin 1 (DNPSLSIDLTFHLLRTLLELARTQSQRERAEQNRIIFDSV; ends and bridges not checked; UniProt P55089 83-122, looked up)
EGFR transactivation (EGFR): stimulated EGFR transactivation

fibroblast growth factor
ERK1/2 phosphorylation [5]: induced strong ERK1/2 phosphorylation
